Assay results: patent publication US7250413B2, “C-25 carbamate rifamycin derivatives with activity against drug-resistant microbes” (Cumbre Pharmaceuticals Inc., priority 2004, dated 2007)
Converted amounts (≈) assume the structure as drawn.

Experiments:
Assay in all cases: MIC, microbroth dilution
Assay type in all cases: cell-based
[1] = test system: Mycobacterium smegmatis ATCC700084; settings: Mycolicibacterium smegmatis, ATCC700084; rifS; Middlebrook Broth plus ADC Enrichment, 37° C.; read-out: MIC
Method: (§1) Representative compounds were assayed for antimicrobial activity as follows: Minimum Inhibitory Concentrations (“MICs”) were determined by the microbroth dilution method as per NCCLS guidelines (National Committee for Clinical Laboratory Standards, 2000), except that all growth incubations were conducted at 37° C. Bacterial cultures were tested in the following bacteriological media: S. aureus, S. epidermidis, and E. coli in Cation-Adjusted Mueller-Hinton Broth, S. pneumoniae in THY Broth supplemented with 1 mg/mL catalase under 5% CO2 atmosphere, S. pyogenes in THY Broth, E. faecalis in BHI Broth, H. influenzae in BHI Broth supplemented with 0.75 μL of 1 mg/mL NAD and 150 μL of 1 mg/ml hematin per 5 mL, and M smegmatis in Middlebrook Broth plus ADC Enrichment.

[2] = test system: Enterococcus faecalis ATCC29212; settings: rifS, BHI Broth, 37° C., read-out: MIC
Method: as §1

[3] = test system: Staphylococcus aureus ATCC29213; settings: rifS, Cation-Adjusted Mueller-Hinton Broth, 37° C., read-out: MIC
Method: as §1

SMILES	MIC [1] [µg/mL]	MIC [2] [µg/mL]	MIC [3] [µg/mL]
CO[C@H]1/C=C/O[C@@]2(C)Oc3c(C)c(O)c4c(c3C2=O)C(=O)C(N2CCOCC2)=C(NC(=O)/C(C)=C\C=C\[C@H](C)[C@H](O)[C@@H](C)[C@@H](O)[C@@H](C)[C@H](OC(=O)NCCC2CCCN2C)[C@@H]1C)C4=O (stereo partly drawn) [Example 31, 25-O-Desacetyl-(carbonyl-2-(1-methyl-pyrrolidin-2-yl)-ethylamine) 3-morpholino rifamycin S]	0.063 to 31	0.25 to 62 (≈ 0.28 to 69.4 µM)	0.002 to 1.95 (≈ 0.00224 to 2.18 µM)
CO[C@H]1/C=C/O[C@@]2(C)Oc3c(C)c(O)c4c(c3C2=O)C(=O)C(N2CCOCC2)=C(NC(=O)/C(C)=C\C=C\[C@H](C)[C@H](O)[C@@H](C)[C@@H](O)[C@@H](C)[C@H](OC(=O)NCCN2CCCC2)[C@@H]1C)C4=O [Example 32, 25-O-Desacetyl-(carbonyl-2-Pyrrolidin-1-yl-ethylamine) 3-morpholino rifamycin S]	0.063 to 31	0.25 to 62 (≈ 0.284 to 70.5 µM)	0.002 to 1.95 (≈ 0.00228 to 2.22 µM)
CO[C@H]1/C=C/O[C@@]2(C)Oc3c(C)c(O)c4c(c3C2=O)C(=O)C(N2CCOCC2)=C(NC(=O)/C(C)=C\C=C\[C@H](C)[C@H](O)[C@@H](C)[C@@H](O)[C@@H](C)[C@H](OC(=O)NC2CCN(Cc3ccccc3)CC2)[C@@H]1C)C4=O [Example 33, 25-O-Desacetyl-(carbonyl-1-benzyl-piperidin-4-ylamine) 3-morpholino rifamycin S]	0.063 to 31	0.25 to 62 (≈ 0.262 to 64.9 µM)	0.002 to 1.95 (≈ 0.00209 to 2.04 µM)
CO[C@H]1/C=C/O[C@@]2(C)Oc3c(C)c(O)c4c(c3C2=O)C(=O)C(N2CCOCC2)=C(NC(=O)/C(C)=C\C=C\[C@H](C)[C@H](O)[C@@H](C)[C@@H](O)[C@@H](C)[C@H](OC(=O)NCCCCc2ccccc2)[C@@H]1C)C4=O [Example 34, 25-O-Desacetyl-(carbonyl-4-phenyl-butylamine) 3-morpholino rifamycin S]	0.063 to 31	0.25 to 62 (≈ 0.274 to 67.8 µM)	0.002 to 1.95 (≈ 0.00219 to 2.13 µM)
CO[C@H]1/C=C/O[C@@]2(C)Oc3c(C)c(O)c4c(c3C2=O)C(=O)C(N2CCOCC2)=C(NC(=O)/C(C)=C\C=C\[C@H](C)[C@H](O)[C@@H](C)[C@@H](O)[C@@H](C)[C@H](OC(=O)N2CCC(N3CCCCC3)CC2)[C@@H]1C)C4=O [Example 35, 25-O-Desacetyl-(carbonyl-[1,4′]bipiperidinyl) 3-morpholino rifamycin S]	0.063 to 31	0.25 to 62 (≈ 0.268 to 66.4 µM)	0.002 to 1.95 (≈ 0.00214 to 2.09 µM)
CO[C@H]1/C=C/O[C@@]2(C)Oc3c(C)c(O)c4c(c3C2=O)C(=O)C(N2CCOCC2)=C(NC(=O)/C(C)=C\C=C\[C@H](C)[C@H](O)[C@@H](C)[C@@H](O)[C@@H](C)[C@H](OC(=O)NCc2ccc(N(C)C)cc2)[C@@H]1C)C4=O [Example 36, 25-O-Desacetyl-(carbonyl-(4-aminomethyl-phenyl)-dimethyl-amine) 3-morpholino rifamycin S]	0.063 to 31	0.25 to 62 (≈ 0.273 to 67.8 µM)	0.002 to 1.95 (≈ 0.00219 to 2.13 µM)
CO[C@H]1/C=C/O[C@@]2(C)Oc3c(C)c(O)c4c(c3C2=O)C(=O)C(N2CCOCC2)=C(NC(=O)/C(C)=C\C=C\[C@H](C)[C@H](O)[C@@H](C)[C@@H](O)[C@@H](C)[C@H](OC(=O)N(CCN(C)C)Cc2ccccc2)[C@@H]1C)C4=O [Example 37, 25-O-Desacetyl-(carbonyl-N′-benzyl-N,N-dimethyl-ethane-1,2-diamino) 3-morpholino rifamycin S]	0.063 to 31	0.25 to 62 (≈ 0.265 to 65.7 µM)	0.002 to 1.95 (≈ 0.00212 to 2.07 µM)
CO[C@H]1/C=C/O[C@@]2(C)Oc3c(C)c(O)c4c(c3C2=O)C(=O)C(N2CCOCC2)=C(NC(=O)/C(C)=C\C=C\[C@H](C)[C@H](O)[C@@H](C)[C@@H](O)[C@@H](C)[C@H](OC(=O)NCCc2ccc(Cl)cc2)[C@@H]1C)C4=O [Example 38, 25-O-Desacetyl-(carbonyl-2-(4-Chloro-phenyl)-ethylamine) 3-morpholino rifamycin S]	0.063 to 31	0.25 to 62 (≈ 0.272 to 67.4 µM)	0.002 to 1.95 (≈ 0.00217 to 2.12 µM)
CO[C@H]1/C=C/O[C@@]2(C)Oc3c(C)c(O)c4c(c3C2=O)C(=O)C(N2CCOCC2)=C(NC(=O)/C(C)=C\C=C\[C@H](C)[C@H](O)[C@@H](C)[C@@H](O)[C@@H](C)[C@H](OC(=O)NCc2cccc(Cl)c2)[C@@H]1C)C4=O [Example 39, 25-O-Desacetyl-(carbonyl-3-chloro-benzylamine) 3-morpholino rifamycin S]	0.063 to 31	0.25 to 62 (≈ 0.276 to 68.4 µM)	0.002 to 1.95 (≈ 0.00221 to 2.15 µM)
CO[C@H]1/C=C/O[C@@]2(C)Oc3c(C)c(O)c4c(c3C2=O)C(=O)C(N2CCOCC2)=C(NC(=O)/C(C)=C\C=C\[C@H](C)[C@H](O)[C@@H](C)[C@@H](O)[C@@H](C)[C@H](OC(=O)NCc2ccc([N+](=O)[O-])cc2)[C@@H]1C)C4=O [Example 40, 25-O-Desacetyl-(carbonyl-4-nitro-benzylamine) 3-morpholino rifamycin S]	0.063 to 31	0.25 to 62 (≈ 0.273 to 67.6 µM)	0.002 to 1.95 (≈ 0.00218 to 2.13 µM)
CO[C@H]1/C=C/O[C@@]2(C)Oc3c(C)c(O)c4c(c3C2=O)C(=O)C(N2CCOCC2)=C(NC(=O)/C(C)=C\C=C\[C@H](C)[C@H](O)[C@@H](C)[C@@H](O)[C@@H](C)[C@H](OC(=O)NCc2cnc3ccccc3c2)[C@@H]1C)C4=O [Example 41, 25-O-Desacetyl-(carbonyl-N-quinolin-3-yl-methylamino) 3-morpholino rifamycin S]	0.063 to 31	0.25 to 62 (≈ 0.271 to 67.2 µM)	0.002 to 1.95 (≈ 0.00217 to 2.11 µM)
C#CCNC(=O)O[C@H]1[C@H](C)[C@H](O)[C@H](C)[C@@H](O)[C@@H](C)/C=C/C=C(/C)C(=O)NC2=C(N3CCOCC3)C(=O)c3c(c(O)c(C)c4c3C(=O)[C@@](C)(O/C=C/[C@H](OC)[C@H]1C)O4)C2=O [Example 43, 25-O-Desacetyl-(carbonyl-prop-2-ynylamino) 3-morpholino rifamycin S]	0.063 to 31	0.25 to 62 (≈ 0.305 to 75.6 µM)	0.002 to 1.95 (≈ 0.00244 to 2.38 µM)
CO[C@H]1/C=C/O[C@@]2(C)Oc3c(C)c(O)c4c(c3C2=O)C(=O)C(N2CCOCC2)=C(NC(=O)/C(C)=C\C=C\[C@H](C)[C@H](O)[C@@H](C)[C@@H](O)[C@@H](C)[C@H](OC(=O)NCC#Cc2cccc(CO)c2)[C@@H]1C)C4=O [Example 44, 25-O-Desacetyl-(carbonyl-[3-(3-amino-prop-1-ynyl)-phenyl]-methanol) 3-morpholino rifamycin S]	0.063 to 31	0.25 to 62 (≈ 0.27 to 67 µM)	0.002 to 1.95 (≈ 0.00216 to 2.11 µM)
CO[C@H]1/C=C/O[C@@]2(C)Oc3c(C)c(O)c4c(c3C2=O)C(=O)C(N2CCOCC2)=C(NC(=O)/C(C)=C\C=C\[C@H](C)[C@H](O)[C@@H](C)[C@@H](O)[C@@H](C)[C@H](OC(=O)NCC#Cc2cnc3ccccc3c2)[C@@H]1C)C4=O [Example 45, 25-O-Desacetyl-(carbonyl-3-quinolin-3-yl-prop-2-ynylamine) 3-morpholino rifamycin S]	0.063 to 31	0.25 to 62 (≈ 0.264 to 65.5 µM)	0.002 to 1.95 (≈ 0.00211 to 2.06 µM)
COc1ccccc1-c1cc(CNC(=O)O[C@H]2[C@H](C)[C@H](O)[C@H](C)[C@@H](O)[C@@H](C)/C=C/C=C(/C)C(=O)NC3=C(N4CCOCC4)C(=O)c4c(c(O)c(C)c5c4C(=O)[C@@](C)(O/C=C/[C@H](OC)[C@H]2C)O5)C3=O)on1 [Example 46, 25-O-Desacetyl-(carbonyl-C-[3-(2-methoxy-phenyl)-isoxazol-5-yl]-methylamino) 3-morpholino rifamycin S]	0.063 to 31	0.25 to 62 (≈ 0.258 to 64 µM)	0.002 to 1.95 (≈ 0.00206 to 2.01 µM)
CO[C@H]1/C=C/O[C@@]2(C)Oc3c(C)c(O)c4c(c3C2=O)C(=O)C(N2CCOCC2)=C(NC(=O)/C(C)=C\C=C\[C@H](C)[C@H](O)[C@@H](C)[C@@H](O)[C@@H](C)[C@H](OC(=O)NCc2cc(-c3ccccn3)no2)[C@@H]1C)C4=O [Example 47, 25-O-Desacetyl-(carbonyl-C-(3-Pyridin-2-yl-isoxazol-5-yl)-methylamino) 3-morpholino rifamycin S]	0.063 to 31	0.25 to 62 (≈ 0.266 to 66 µM)	0.002 to 1.95 (≈ 0.00213 to 2.07 µM)
CO[C@H]1/C=C/O[C@@]2(C)Oc3c(C)c(O)c4c(c3C2=O)C(=O)C(N2CCOCC2)=C(NC(=O)/C(C)=C\C=C\[C@H](C)[C@H](O)[C@@H](C)[C@@H](O)[C@@H](C)[C@H](OC(=O)NCc2cc(C(C)=O)no2)[C@@H]1C)C4=O [Example 48]	0.063 to 31	0.25 to 62 (≈ 0.276 to 68.5 µM)	0.002 to 1.95 (≈ 0.00221 to 2.15 µM)
CO[C@H]1/C=C/O[C@@]2(C)Oc3c(C)c(O)c4c(c3C2=O)C(=O)C(N2CCOCC2)=C(NC(=O)/C(C)=C\C=C\[C@H](C)[C@H](O)[C@@H](C)[C@@H](O)[C@@H](C)[C@H](OC(=O)N2CCN(CCNc3ccc(C(=NO)Nc5ccccc5)cc3C(F)(F)F)CC2)[C@@H]1C)C4=O [Example 49, 25-O-Desacetyl-(carbonyl-N-hydroxy-N′-phenyl-4-(2-piperazin-1-yl-ethylamino)-3-trifluoromethyl-benzamidine) 3-morpholino rifamycin S]	0.063 to 31	0.25 to 62 (≈ 0.213 to 52.9 µM)	0.002 to 1.95 (≈ 0.00171 to 1.66 µM)
Cc1cc2cc(NC(=O)c3ccc(N4CCNCC4)c(C(F)(F)F)c3)ccc2[nH]1 [Example 50, N-(2-Methyl-1H-indol-5-yl)-4-piperazin-1-yl-3-trifluoromethyl-benzamide]	0.063 to 31	0.25 to 62 (≈ 0.621 to 154 µM)	0.002 to 1.95 (≈ 0.00497 to 4.85 µM)
CO[C@H]1/C=C/O[C@@]2(C)Oc3c(C)c(O)c4c(c3C2=O)C(=O)C(N2CCOCC2)=C(NC(=O)/C(C)=C\C=C\[C@H](C)[C@H](O)[C@@H](C)[C@@H](O)[C@@H](C)[C@H](OC(=O)N2CCN(c3ccc(C(=O)Nc5ccc6[nH]c(C)cc6c5)cc3C(F)(F)F)CC2)[C@@H]1C)C4=O [Example 51, 25-O-Desacetyl-(carbonyl-N-(2-methyl-1H-indol-5-yl)-4-piperazin-1-yl-3-trifluoromethyl-benzamide) 3-morpholino rifamycin S]	0.063 to 31	0.25 to 62 (≈ 0.214 to 53.1 µM)	0.002 to 1.95 (≈ 0.00171 to 1.67 µM)
